For one experiment, the target named is T1, μ receptor (Mus musculus, UniProt P42866).
T1 construct: naloxone as mu antagonist (printed 'agonist')
Briefly: Opioid activity test using an extracted mouse vas deferens preparation, Ke with naloxone. The following applies: naloxone added. The arrangement: species or system male ddy mouse. The procedure:
(§1) A male ddy mouse was used in this test. The vas deferens extracted from the animal was suspended in a Magnus tube filled with Krebes-Henseleit solution (NaCl 118 mM; KCl 4.7 mM; CaCl2 2.5 mM; KH2 PO4 1.1 mM; NaHCO3 25 mM; Glucose 11 mM) warmed to 37° C. and ventilated with 5% carbon dioxide and 95% oxygen. Electrical stimulus was performed at 0.1 Hz for 5.0 ms by means of ring-shaped platinum electrodes located above and below. Tissue contractions were recorded on a polygraph using an isometric transducer.
(§2) After adequately washing with nutrient solution and the contraction reaction stabilized, the μ agonist, naloxone, the δ agonist, NTI, or the κ agonist, norBNI, was added after which the test compound was again cumulatively added after roughly 20 minutes. The Ke value was calculated using the following calculation formula from the difference in the efficacies of both agonists.
(§3) Ke=[Conc. of added agonist]/(IC50 ratio-1)
(§4) IC50 ratio=IC50 in the presence of agonist/IC50 in the absence of agonist

A further experiment concerns the target T2, κ receptor (Mus musculus, UniProt P33534).
T2 construct: from tissue; host or cells: mouse (male ddy) vas deferens
Briefly: Opioid activity test using an extracted mouse vas deferens preparation, Ke with norBNI. The arrangement: species or system male ddy mouse. The following applies: for receptor selectivity of agonist (κ): in words; for Ke, norBNI: κ, norBNI added. The protocol: as §1, §2, §3, §4

Experiment [1] has as its system acetic acid-induced writhing in ddy mice. Briefly: animal or person. The class given is in vivo, 5 week old ddy mice. The following applies: for ED50: Mus musculus, sc, s.c. 15 minutes before acetic acid, read-out: ED50. The procedure:
5 week old ddy mice were used in this test. After intraperitoneal administration of 0.1 ml of 0.6% aqueous acetic acid per 10 g of body weight, the number of writhing reactions that occurred in 10 minutes starting 10 minutes after administration was evaluated for the indicator. The test drug was administered subcutaneously into the backs of the animals 15 minutes before administration of acetic acid.

The subject of experiment [2] is extracted mouse vas deferens preparation. Briefly: Opioid activity test using an extracted mouse vas deferens preparation (suppression of electrically induced contractions). Set-up: species or system male ddy mouse. The following applies: electrical stimulus 0.1 Hz, 37° C. The procedure: as §1, §2
The nature of experiment [3]: Diuretic action (urine output for 5 hours after physiological saline loading in rats). The class given is in vivo, male Wistar rats. The following applies: Rattus norvegicus, sc, 5 hours after saline 20 ml/kg p.o.; for ED (200% urine output): dose giving urine output of 200 (non-dosed group = 100); for ED (500% urine output): dose giving urine output of 500 (non-dosed group = 100). An outline of the steps:
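Doses reported as ED200/ED500, i.e. those raising 5 h urine output to 200 or 500 versus undosed rats set at 100. Subcutaneous dosing preceded an oral 20 ml/kg saline load by 30 min; male Wistar rats, 7-8 weeks, deprived of water 1 h beforehand.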

The target in another experiment is T3, δ receptor (Mus musculus, UniProt P32300).
T3 construct: The vas deferens extracted from the animal was suspended in a Magnus tube; from tissue; host or cells: mouse (male ddy) vas deferens
Set-up: species or system male ddy mouse. The conditions noted are these: mouse vas deferens; for Ke, NTI: δ, NTI added.

Structures can show the parent of a compound that is named as a salt.

By ED50 is commonly meant the dose that gives a 50% effect, or the effect in half of the subjects. By IC50 is commonly meant the concentration needed to halve the response being measured. A higher IC50 goes with a need for much substance.

T2 sequence (P33534 whole entry): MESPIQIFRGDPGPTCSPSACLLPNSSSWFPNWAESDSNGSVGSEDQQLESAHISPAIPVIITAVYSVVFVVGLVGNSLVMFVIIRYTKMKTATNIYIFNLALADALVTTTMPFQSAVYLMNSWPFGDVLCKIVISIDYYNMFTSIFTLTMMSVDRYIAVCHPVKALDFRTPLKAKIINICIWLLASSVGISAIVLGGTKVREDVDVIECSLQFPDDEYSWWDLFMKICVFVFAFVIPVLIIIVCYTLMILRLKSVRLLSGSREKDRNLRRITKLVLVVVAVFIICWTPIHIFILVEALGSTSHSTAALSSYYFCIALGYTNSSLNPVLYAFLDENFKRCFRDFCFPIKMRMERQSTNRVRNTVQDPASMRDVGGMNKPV
T3 sequence (P32300 whole entry): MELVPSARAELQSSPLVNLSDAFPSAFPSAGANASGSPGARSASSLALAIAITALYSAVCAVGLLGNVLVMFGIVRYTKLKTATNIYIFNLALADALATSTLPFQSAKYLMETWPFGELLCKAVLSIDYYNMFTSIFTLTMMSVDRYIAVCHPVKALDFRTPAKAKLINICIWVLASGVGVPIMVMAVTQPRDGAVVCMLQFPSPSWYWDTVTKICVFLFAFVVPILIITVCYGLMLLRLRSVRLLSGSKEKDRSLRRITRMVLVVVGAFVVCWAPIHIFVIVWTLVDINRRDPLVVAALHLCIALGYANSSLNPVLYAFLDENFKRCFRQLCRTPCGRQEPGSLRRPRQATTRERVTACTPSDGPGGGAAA
T1 sequence (P42866 whole entry): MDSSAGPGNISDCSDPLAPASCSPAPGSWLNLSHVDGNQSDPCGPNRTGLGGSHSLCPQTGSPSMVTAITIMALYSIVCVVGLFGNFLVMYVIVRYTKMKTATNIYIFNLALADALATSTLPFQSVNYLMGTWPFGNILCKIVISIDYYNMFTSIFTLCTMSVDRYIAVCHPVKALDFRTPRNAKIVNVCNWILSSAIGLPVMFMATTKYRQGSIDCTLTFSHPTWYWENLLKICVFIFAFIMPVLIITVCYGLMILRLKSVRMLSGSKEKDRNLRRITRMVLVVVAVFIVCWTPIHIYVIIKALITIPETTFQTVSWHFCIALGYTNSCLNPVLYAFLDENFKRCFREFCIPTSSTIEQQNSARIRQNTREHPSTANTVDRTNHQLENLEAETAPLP

As for `CCCCOC(=O)N(C)[C@@H]1CC[C@@]2(O)[C@H]3Cc4ccc(O)c5c4[C@@]2(CCN3CC2CC2)[C@H]1O5` [Compound 59, 17-cyclopropylmethyl-3,14β-dihydroxy-4,5α-epoxy-6β-(N-methylbutyroxycarbamido)morphinan.cndot.tartrate], the “Ke, Naloxone” value on μ receptor came out at 21.3 nM. In addition, on κ receptor, the “receptor selectivity of agonist (κ)” value is “selective agonists for κ receptors” and the “Ke, norBNI” value is 0.151 nM. In addition, the ED50 in experiment [1] amounted to 0.0028 mg/kg. The IC50 in experiment [2] worked out at 1140 pM. Besides, in experiment [3], the ED (200% urine output) was 0.0105 mg/kg and the ED (500% urine output) came out at 2.36 mg/kg. The “Ke, NTI” value on δ receptor came to 47.3 nM.

For the molecule `COc1cccc(/C=C/C(=O)N(C)[C@@H]2CC[C@@]3(O)[C@H]4Cc5ccc(O)c6c5[C@@]3(CCN4CC3CC3)[C@H]2O6)c1` [Compound 63, 17-cyclopropylmethyl-3,14β-dihydroxy-4,5α-epoxy-6β-(N-methyl-3-methoxycinnamamido)morphinan.cndot.tartrate], the “Ke, Naloxone” value on μ receptor worked out at 60.9 nM. For the same molecule, on κ receptor, the “receptor selectivity of agonist (κ)” value is given as “selective agonists for κ receptors” and the “Ke, norBNI” value was 1.60 nM. Further, the ED50 in experiment [1] was 0.0011 mg/kg. In addition, in experiment [1] (s.c., in words), the analgesic activity entry is given as “particularly strong analgesic activity”. The IC50 in experiment [2] was determined as 746 pM. For the same molecule, in experiment [3], the ED (200% urine output) came out at 0.0038 mg/kg and the ED (500% urine output) turned out to be 0.309 mg/kg. Besides, the “Ke, NTI” value on δ receptor is recorded as 96.9 nM.

Consider `CN(C(=O)CCCc1ccccc1)[C@@H]1CC[C@@]2(O)[C@H]3Cc4ccc(O)c5c4[C@@]2(CCN3CC2CC2)[C@H]1O5` [Compound 150, 17-cyclopropylmethyl-4,5α-epoxy-3,14β-dihydroxy-6β-(N-methyl-4-phenylbutanoylamido)morphinan tartrate], for which, on μ receptor, the “Ke, Naloxone” value worked out at 137 nM. At κ receptor, the “receptor selectivity of agonist (κ)” value was “selective agonists for κ receptors” and the “Ke, norBNI” value stood at 0.303 nM. In addition, in experiment [1], the ED50 was 0.035 mg/kg. For the same molecule, the IC50 in experiment [2] was determined as 1670 pM. In experiment [3], this molecule gave an ED (200% urine output) of 0.0429 mg/kg and an ED (500% urine output) of 0.762 mg/kg. For the same molecule, on δ receptor, the “Ke, NTI” value is recorded as 55.6 nM.

With `CC(=O)Oc1ccc2c3c1O[C@H]1[C@H](N(C)C(=O)/C=C/c4cccc(C(F)(F)F)c4)CC[C@@]4(O)[C@@H](C2)N(CC2CC2)CC[C@]314` [Compound 141, 17-cyclopropylmethyl-3-acetoxy-14β-hydroxy-4,5α-epoxy-6β-(N-methyl-3-trifluoromethylcinnamamido)morphinan.cndot.tartrate], the “Ke, Naloxone” value at μ receptor was found to be 142 nM. Besides, on κ receptor, the “receptor selectivity of agonist (κ)” value is reported as “selective agonists for κ receptors” and the “Ke, norBNI” value was determined as 1.39 nM. In experiment [1], the ED50 was 0.01 mg/kg. The molecule further gave an IC50 in experiment [2] of 160 pM. Also, in experiment [3], the ED (200% urine output) is 0.0319 mg/kg and the ED (500% urine output) is 3.45 mg/kg. The “Ke, NTI” value on δ receptor came to 184 nM.

For the molecule `CN(C(=O)/C=C/c1cccc([N+](=O)[O-])c1)[C@H]1CC[C@@]2(O)[C@H]3Cc4ccc(O)c5c4[C@@]2(CCN3CC2CC2)[C@H]1O5` [Compound 97, 17-cyclopropylmethyl-3,14β-dihydroxy-4,5α-epoxy-6α-(N-methyl-3-nitrocinnamamido)morphinan.cndot.phosphate], the “Ke, Naloxone” value at μ receptor amounted to 163 nM. Moreover, the “Ke, norBNI” value on κ receptor came out at 13.9 nM. Further, the ED50 in experiment [1] worked out at 0.0019 mg/kg. This molecule showed an IC50 in experiment [2] of 247 pM. In experiment [3], this molecule came in with an ED (200% urine output) of 0.0045 mg/kg and an ED (500% urine output) of 0.0939 mg/kg. Also, on δ receptor (in words), the “receptor selectivity of agonist (δ)” value was “selective agonists for δ receptors”. The “Ke, NTI” value on δ receptor worked out at 2.92 nM.

The values above are taken from US6177438A, “Morphinan derivatives and pharmaceutical use thereof” (priority 1993, dated 2001).
